Reference: patent US9181307B2, “Influenza A 2009 pandemic H1N1 polypeptide fragments comprising endonuclease activity and their use” (priority 2010, dated 2015)

System: endonucleolytically active site of the Influenza A 2009 pandemic H1N1 PA subunit polypeptide fragment or variant thereof
Test: Co-crystallisation / X-ray structure: binding to the endonucleolytically active site
Parameters: species or system Influenza A 2009 pandemic H1N1 virus

| Compound | ability to bind to the endonucleolytically active site |
| --- | --- |
| O=C(O[C@@H]1Cc2c(O)cc(O)cc2O[C@@H]1c1cc(O)c(O)c(O)c1)c1cc(O)c(O)c(O)c1 [EGCG, [(2R,3R)-5,7-dihydroxy-2-(3,4,5-trihydroxyphenyl)chroman-3-yl]3,4,5-trihydroxybenzoate] | able to bind to the endonucleolytically active site |
| O=C(O)/C(O)=C/C(=O)C1(Cc2ccc(Cl)cc2)CCCN(Cc2ccccc2)C1 (stereo not drawn) [EMBL-R05-3, 4-[3-[(4-chlorophenyl)methyl]-1-(phenylmethyl)-3-piperidinyl]-2-hydroxy-4-oxo-2-butenoic acid] | able to bind to the endonucleolytically active site |
| O=C(O)/C(O)=C/C(=O)C1(Cc2ccc(Cl)cc2)CCN(CC2CCCCC2)CC1 [EMBL-R05-2, 4-[4-[(4-chlorophenyl)methyl]-1-(cyclohexylmethyl)-4-piperidinyl]-2-hydroxy-4-oxo-2-butenoic acid] | able to bind to the endonucleolytically active site |
